Assay results as given in patent US8399495B2, “Talarazole metabolites” (Stiefel Laboratories, Inc., priority 2006, dated 2013).

Columns and labels:
[1] = Pharmacokinetics of radioactivity in plasma after oral 14C-labeled talarozole, rat; type: in vivo; conditions: single oral 5 mg/kg; for AUC0-t: 0-48 h
From the text: (§1) Mouse, rat, dog and human were the species used for the safety evaluations of talarozole. More specifically, the disposition of ^14C-labeled talarozole was examined in mice, rats, dogs and humans after oral administration to provide information regarding the absorption, metabolism and excretion of talarozole.
(§2) Male and female CD-1 mice (19-29 g, n=3/sex/timepoint for blood sampling, n=3/sex for mass balance), Sprague Dawley rats (0.205-0.237 kg, n=3/sex/timepoint for blood sampling, n=3/sex for mass balance) and beagle dogs (7-12 kg, n=3) were given a single oral dose of ^14C-labeled talarozole in 20% hydroxyl propyl B-cyclodextrin at 5 mg/kg. Healthy human male volunteers (76.6-107.9 kg, n=5) were dosed with a single oral dose of 4 mg ^14C-labeled rambazole in ethanol. Blood samples were collected at selected timepoints after dosing and plasma was prepared. Urine and feces were collected for 2, 7 and 8 days. For the human study, up to 288 hours post-dose and semen samples were obtained 2 and 4 hours post-dose. Radioactivity in various matrices were measured by liquid scintillation counting (LSC). Select plasma, urine and fecal samples were subjected to metabolite radioprofiling and characterization, and in the human study, semen samples. Metabolite radioprofiling was accomplished using HPLC with fraction collection followed by solid scintillation counting (Packard TopCount—see representative HPLC run data below). Radioactivity peaks were integrated and the percent distribution of individual metabolites in each sample was determined. […] For all species, plasma, urine and fecal samples were pooled across animals and analyzed. Plasma was analyzed at several time-points out to 24 hours. Urine was analyzed over one time-interval (0-24 hours for mouse, 0-48 hours for rat, 0-72 hours for dog, and for in the human study, 0-12, 12-24, 24-48, 0-48 hours. Feces was analyzed over 2-3 time intervals (0-24 and 24-48 hours for mouse and rat; 0-24, 24-48, and 48-72 hours for male dogs; and 24-48, 48-72, and 72-96 hours for female dogs). In the human study, feces were analyzed for 0-48, 48-96, 96-144, 144-192, 192-288, 0-144, 144-288 and 0-288 hours. PK parameters for ^14C-labeled talarozole radioactivity was determined from the mean (mouse and rat) or individual (dog and human) plasma concentration versus time data. PK parameter values were determined by non-compartmental methods using WinNonlin™. • HPLC data for separations described in Example 1: • LC system: Waters 2695 Separations Module • Analytic column: C18 column, 4.6×150 mm, 3 μm • Flow rate: 1.0 mL/min • Mobile phase A: 2% HCOOH in H2O (pH 3.2) • Mobile phase B: CH3CN • Gradient: […]

[2] = Metabolite radioprofiling of plasma, urine and feces, mouse; type: in vivo; conditions: for Feces % Dose as the component / Plasma 0-24 h AUC (% Sample) / Plasma 0-24 h AUC of the radioactive component / Urine % Dose as the component: mouse (5 mg/kg) oral 14C-talarozole; for Urine % Dose as the component: urine 0-24 h; for Plasma 0-24 h AUC, total radioactivity: mouse (5 mg/kg)
Protocol: (§3) Male and female CD-1 mice (19-29 g, n=3/sex/timepoint for blood sampling, n=3/sex for mass balance), Sprague Dawley rats (0.205-0.237 kg, n=3/sex/timepoint for blood sampling, n=3/sex for mass balance) and beagle dogs (7-12 kg, n=3) were given a single oral dose of ^14C-labeled talarozole in 20% hydroxyl propyl B-cyclodextrin at 5 mg/kg. Healthy human male volunteers (76.6-107.9 kg, n=5) were dosed with a single oral dose of 4 mg ^14C-labeled rambazole in ethanol. Blood samples were collected at selected timepoints after dosing and plasma was prepared. Urine and feces were collected for 2, 7 and 8 days. For the human study, up to 288 hours post-dose and semen samples were obtained 2 and 4 hours post-dose. Radioactivity in various matrices were measured by liquid scintillation counting (LSC). Select plasma, urine and fecal samples were subjected to metabolite radioprofiling and characterization, and in the human study, semen samples. Metabolite radioprofiling was accomplished using HPLC with fraction collection followed by solid scintillation counting (Packard TopCount—see representative HPLC run data below). Radioactivity peaks were integrated and the percent distribution of individual metabolites in each sample was determined. Metabolite characterization and identification were accomplished by LC/MS (Finnigan MAT LCQ in positive or negative ESI mode) in conjunction with an appropriate radioactive monitor (RAM). For all species, plasma, urine and fecal samples were pooled across animals and analyzed. Plasma was analyzed at several time-points out to 24 hours. Urine was analyzed over one time-interval (0-24 hours for mouse, 0-48 hours for rat, 0-72 hours for dog, and for in the human study, 0-12, 12-24, 24-48, 0-48 hours. Feces was analyzed over 2-3 time intervals (0-24 and 24-48 hours for mouse and rat; 0-24, 24-48, and 48-72 hours for male dogs; and 24-48, 48-72, and 72-96 hours for female dogs). In the human study, feces were analyzed for 0-48, 48-96, 96-144, 144-192, 192-288, 0-144, 144-288 and 0-288 hours. PK parameters for ^14C-labeled talarozole radioactivity was determined from the mean (mouse and rat) or individual (dog and human) plasma concentration versus time data. PK parameter values were determined by non-compartmental methods using WinNonlin™. • HPLC data for separations described in Example 1: • LC system: Waters 2695 Separations Module • Analytic column: C18 column, 4.6×150 mm, 3 μm • Flow rate: 1.0 mL/min • Mobile phase A: 2% HCOOH in H2O (pH 3.2) • Mobile phase B: CH3CN • Gradient: […]

[3] = Pharmacokinetics of radioactivity in plasma after oral 14C-labeled talarozole, human; type: in vivo; conditions: male, single oral 4 mg
From the text: as §1
Male and female CD-1 mice (19-29 g, n=3/sex/timepoint for blood sampling, n=3/sex for mass balance), Sprague Dawley rats (0.205-0.237 kg, n=3/sex/timepoint for blood sampling, n=3/sex for mass balance) and beagle dogs (7-12 kg, n=3) were given a single oral dose of ^14C-labeled talarozole in 20% hydroxyl propyl B-cyclodextrin at 5 mg/kg. […] Radioactivity in various matrices were measured by liquid scintillation counting (LSC). […] Radioactivity peaks were integrated and the percent distribution of individual metabolites in each sample was determined. […] For all species, plasma, urine and fecal samples were pooled across animals and analyzed. Plasma was analyzed at several time-points out to 24 hours. […] PK parameter values were determined by non-compartmental methods using WinNonlin™. • HPLC data for separations described in Example 1: • LC system: Waters 2695 Separations Module • Analytic column: C18 column, 4.6×150 mm, 3 μm • Flow rate: 1.0 mL/min • Mobile phase A: 2% HCOOH in H2O (pH 3.2) • Mobile phase B: CH3CN • Gradient: […]

[4] = Metabolite radioprofiling of plasma, urine and feces, dog; type: in vivo; conditions: for Feces % Dose as the component / Plasma 0-24 h AUC (% Sample) / Plasma 0-24 h AUC of the radioactive component: dog (5 mg/kg) oral 14C-talarozole; for Plasma 0-24 h AUC, total radioactivity: dog (5 mg/kg)
Protocol: as §3

[5] = Excretion of radioactivity (mass balance), human; type: in vivo; conditions: male, 0-288, oral 4 mg
From the text: as §1, §3

IP-10 = assay: Suppression of IP-10 production by IFNγ-activated human epidermal keratinocytes; type: cell-based
From the text: Talarozole Metabolites for Suppression of IP-10 Production by IFNγ-Activated Human Epidermal Keratinocytes
IP-10, a member of the CXC subfamily of chemokines, attracts T-lymphocytes and natural killer cells. […] In particular, epidermal keratinocytes of psoriatic lesions express elevated levels of IP-10. Suppression of IP-10 expression by activated keratinocytes may represent a novel target for therapeutic intervention of inflammatory skin disorders.

[6] = Excretion of radioactivity (mass balance), dog; type: in vivo; conditions: 0-192 h, oral 5 mg/kg; for % in Urine (percent of dose recovered, total radioactivity) / % in Feces (percent of dose recovered, total radioactivity): 5 mg/kg
From the text: as §1, §3

[7] = Pharmacokinetics of radioactivity in plasma after oral 14C-labeled talarozole, mouse; type: in vivo; conditions: single oral 5 mg/kg; for AUC0-t: 0-48 h
From the text: as §1, §2

[8] = Excretion of radioactivity (mass balance), rat; type: in vivo; conditions: 0-168 h, oral 5 mg/kg; for % in Feces (percent of dose recovered, total radioactivity) / % in Urine (percent of dose recovered, total radioactivity): 5 mg/kg
From the text: as §1, §3

[9] = Excretion of radioactivity (mass balance), mouse; type: in vivo; conditions: 0-48 h, oral 5 mg/kg; for % in Feces (percent of dose recovered, total radioactivity) / % in Urine (percent of dose recovered, total radioactivity): 5 mg/kg
From the text: as §1, §3

[10] = Metabolite radioprofiling of plasma, urine, feces and semen, human; conditions: in vivo
Protocol: as §3

[11] = listed as 14C-labeled talarozole
[12] = female, listed as 14C-Talarozole
[13] = female, listed as 14C-labeled talarozole
[14] = male, listed as 14C-labeled talarozole

CCC(CC)[C@H](c1ccc(Nc2nc3ccccc3s2)cc1)n1cncn1 [Talarozole, (R)—N-[4-[2-ethyl-1-(1H-1,2,4-triazole-1-yl)butyl]phenyl]-2-benzothiazolamine]
AUC0-∞ ([1]; female): 7810 hr-ng equiv/g
AUC0-t ([1]; female): 7670 hr-ng equiv/g
AUC0-∞ ([1]; male): 6960 hr-ng equiv/g
AUC0-t ([1]; male): 6720 hr-ng equiv/g
Feces % Dose as the component ([2]; female): 7.04 % Dose
Plasma 0-24 h AUC (% Sample) ([2]; female): 21.48%
Plasma 0-24 h AUC of the radioactive component ([2]; female): 1420.2 ng·h/g
Urine % Dose as the component ([2]; female): No unchanged ^14C-labeled talarozole was detected
Feces % Dose as the component ([2]; male): 6.11 % Dose
Plasma 0-24 h AUC (% Sample) ([2]; male): 15.15%
Plasma 0-24 h AUC of the radioactive component ([2]; male): 1377.5 ng·h/g
Urine % Dose as the component ([2]; male): No unchanged ^14C-labeled talarozole was detected
Plasma 0-24 h AUC, total radioactivity ([2]; female): 66113.0 ng*hr/g F
Plasma 0-24 h AUC, total radioactivity ([2]; male): 9092.5 ng·h/g/M
AUC0-∞ [3]: 301 hr-ng equiv/g
AUC0-t ([3]; 0-48 h): 269 hr-ng equiv/g
Feces % Dose as the component ([4]; female): 1.59 % Dose
Plasma 0-24 h AUC (% Sample) ([4]; female): 23.20%
Plasma 0-24 h AUC of the radioactive component ([4]; female): 4228.0 ng·h/g
Feces % Dose as the component ([4]; male): 1.22 % Dose
Plasma 0-24 h AUC (% Sample) ([4]; male): 24.24%
Plasma 0-24 h AUC of the radioactive component ([4]; male): 4132.9 ng·h/g
Plasma 0-24 h AUC, total radioactivity ([4]; female): 18225 ng*hr/g F
Plasma 0-24 h AUC, total radioactivity ([4]; male): 17047 ng·h/g/M
Total % Recovered [5]: 87.7%
% in Feces (percent of dose recovered, total radioactivity) ([5]; listed as 14C-Talarozole): 80.36%
% in Urine (percent of dose recovered, total radioactivity) ([5]; listed as 14C-Talarozole): 7.29%
% in Feces (percent of dose recovered, total radioactivity) [5, 11]: 72.2%
% in Urine (percent of dose recovered, total radioactivity) [5, 11]: 7.3%
IP-10 expression (IP-10): down regulate dose-dependently
% in Urine (percent of dose recovered, total radioactivity) ([6]; listed as 14C-Talarozole): 4.13 M %
% in Urine (percent of dose recovered, total radioactivity) [6, 11]: 4.1%
% in Cage Rinse (percent of dose recovered) ([6]; female): 0.5%
Total % Recovered ([6]; female): 92.4%
% in Feces (percent of dose recovered, total radioactivity) [6, 12]: 89.00 F %
% in Urine (percent of dose recovered, total radioactivity) [6, 12]: 2.89 F %
% in Feces (percent of dose recovered, total radioactivity) [6, 13]: 89.0%
% in Urine (percent of dose recovered, total radioactivity) [6, 13]: 2.9%
% in Cage Rinse (percent of dose recovered) ([6]; male): 0.8%
Total % Recovered ([6]; male): 93.6%
% in Feces (percent of dose recovered, total radioactivity) ([6]; male, listed as 14C-Talarozole): 88.66 M %
% in Feces (percent of dose recovered, total radioactivity) [6, 14]: 88.7%
AUC0-∞ ([7]; female): 6767 hr-ng equiv/g
AUC0-t ([7]; female): 6632 hr-ng equiv/g
AUC0-∞ ([7]; male): 10276 hr-ng equiv/g
AUC0-t ([7]; male): 10215 hr-ng equiv/g
% in Cage Rinse (percent of dose recovered) ([8]; female): 3.88%
Total % Recovered ([8]; female): 95.4%
% in Feces (percent of dose recovered, total radioactivity) [8, 12]: 77.57 F %
% in Urine (percent of dose recovered, total radioactivity) [8, 12]: 10.07 F %
% in Feces (percent of dose recovered, total radioactivity) [8, 13]: 77.5%
% in Urine (percent of dose recovered, total radioactivity) [8, 13]: 10.1%
% in Cage Rinse (percent of dose recovered) ([8]; male): 4.01%
Total % Recovered ([8]; male): 95.2%
% in Feces (percent of dose recovered, total radioactivity) ([8]; male, listed as 14C-Talarozole): 77.53 M %
% in Urine (percent of dose recovered, total radioactivity) ([8]; male, listed as 14C-Talarozole): 6.33 M %
% in Feces (percent of dose recovered, total radioactivity) [8, 14]: 77.5%
% in Urine (percent of dose recovered, total radioactivity) [8, 14]: 6.3%
% in Cage Rinse (percent of dose recovered) ([9]; female): 0.8%
Total % Recovered ([9]; female): 95.4%
% in Feces (percent of dose recovered, total radioactivity) [9, 12]: 91.59 F %
% in Urine (percent of dose recovered, total radioactivity) [9, 12]: 2.96 F %
% in Feces (percent of dose recovered, total radioactivity) [9, 13]: 91.6%
% in Cage Rinse (percent of dose recovered) ([9]; male): 4.4%
Total % Recovered ([9]; male): 91.4%
% in Feces (percent of dose recovered, total radioactivity) ([9]; male, listed as 14C-Talarozole): 82.70 M %
% in Urine (percent of dose recovered, total radioactivity) ([9]; male, listed as 14C-Talarozole): 4.27 M %
% in Feces (percent of dose recovered, total radioactivity) [9, 14]: 82.7%
Plasma 0-24 h AUC of the radioactive component ([10]; human, po, 0.067 mg/kg): 12.74 ng·h/g
Semen (radioactive component in semen samples) [10]: minor radioactive components
Urine % Dose as the component [10]: not found
Plasma 0-24 h AUC, total radioactivity ([10]; male, human, 0.067 mg/kg): 211.3 ng·h/g
Plasma 0-24 h AUC (% Sample), % of total plasma radioactivity ([10]; male, human, po, 0.067 mg/kg): 6.03%
